{"source": "patent US20240279220A1", "about": "“INDOLE COMPOUNDS AND METHODS OF USE” (Genzyme Corporation, priority 2021, published 2024)", "data": [{"tested_on": "NBD1/3D", "test": "Aggregation analysis using differential static light scattering (DSLS), NBD1 thermal stability", "assay_type": "binding, Human", "details": "ΔTagg versus DMSO control; compound at 100 μM", "procedure,_shortened": "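Purified NBD1 at 0.2 mg/ml in S200 buffer (pH 7.6, 2 mM ATP, 5 mM MgCl2, 1% glycerol) was heated with compound at 1 °C/min to 70 °C. Tagg taken from the light-scattering curve inflection point; ΔTagg = compound Tagg minus mean DMSO control Tagg.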", "values": [{"smiles": "COC(=O)/C=C/c1cccc(Cn2ccc(-c3cccc(Oc4ccc5[nH]ccc5c4CO)c3)n2)c1", "note": "[Example 7, Methyl (E)-3-(3-((3-(3-((4-(hydroxymethyl)-1H-indol-5-yl)oxy)phenyl)-1H-pyrazol-1-yl)methyl)phenyl)acrylate]", "DSLS NBD1/3D Human Stability delta-T (° C.) @ 100 (μM)": "C (C: ≤5° C.)"}, {"smiles": "COC(=O)CCc1cccc(Cn2ccc(-c3cccc(Oc4ccc5[nH]ccc5c4CO)c3)n2)c1", "note": "[Example 8, Methyl 3-(3-((3-(3-((4-(hydroxymethyl)-1H-indol-5-yl)oxy)phenyl)-1H-pyrazol-1-yl)methyl)phenyl)propanoate]", "DSLS NBD1/3D Human Stability delta-T (° C.) @ 100 (μM)": "C (C: ≤5° C.)"}, {"smiles": "O=C(O)/C=C/c1cccc(Cn2ccc(-c3cccc(Oc4ccc5[nH]ccc5c4CO)c3)n2)c1", "note": "[Example 9, (E)-3-(3-((3-(3-((4-(Hydroxymethyl)-1H-indol-5-yl)oxy)phenyl)-1H-pyrazol-1-yl)methyl)phenyl)acrylic acid]", "DSLS NBD1/3D Human Stability delta-T (° C.) @ 100 (μM)": "B (B: 5-10° C.)"}, {"smiles": "O=C(O)CCc1cccc(Cn2ccc(-c3cccc(Oc4ccc5[nH]ccc5c4CO)c3)n2)c1", "note": "[Example 10, 3-(3-((3-(3-((4-(Hydroxymethyl)-1H-indol-5-yl)oxy)phenyl)-1H-pyrazol-1-yl)methyl)phenyl)propanoic acid]", "DSLS NBD1/3D Human Stability delta-T (° C.) @ 100 (μM)": "B (B: 5-10° C.)"}, {"smiles": "O=C(O)Cc1cccc(Cn2ccc(-c3cccc(Oc4ccc5[nH]ccc5c4CO)c3)n2)c1", "note": "[Example 11, 2-(3-((3-(3-((4-(Hydroxymethyl)-1H-indol-5-yl)oxy)phenyl)-1H-pyrazol-1-yl)methyl)phenyl)acetic acid]", "DSLS NBD1/3D Human Stability delta-T (° C.) @ 100 (μM)": "B (B: 5-10° C.)"}, {"smiles": "COP(=O)(Cc1cccc(Cn2ccc(-c3cccc(Oc4ccc5[nH]ccc5c4CO)c3)n2)c1)OC", "note": "[Example 12, dimethyl (3-((3-(3-((4-(hydroxymethyl)-1H-indol-5-yl)oxy)phenyl)-1H-pyrazol-1-yl)methyl)benzyl)phosphonate]", "DSLS NBD1/3D Human Stability delta-T (° C.) @ 100 (μM)": "C (C: ≤5° C.)"}, {"smiles": "COP(=O)(O)Cc1cccc(Cn2ccc(-c3cccc(Oc4ccc5[nH]ccc5c4CO)c3)n2)c1", "note": "[Example 13, methyl hydrogen (3-((3-(3-((4-(hydroxymethyl)-1H-indol-5-yl)oxy)phenyl)-1H-pyrazol-1-yl)methyl)benzyl)phosphonate]", "DSLS NBD1/3D Human Stability delta-T (° C.) @ 100 (μM)": "B (B: 5-10° C.)"}, {"smiles": "Cc1c(Oc2ccc(F)c(-c3ccn(Cc4cccc(CCC(=O)O)c4)n3)c2)c(F)cc2[nH]ccc12", "note": "[Example 14, 3-(3-((3-(2-fluoro-5-((6-fluoro-4-methyl-1H-indol-5-yl)oxy)phenyl)-1H-pyrazol-1-yl)methyl)phenyl)propanoic acid]", "DSLS NBD1/3D Human Stability delta-T (° C.) @ 100 (μM)": "B (B: 5-10° C.)"}, {"smiles": "CNC(=O)c1c(Oc2cccc(-c3ccn(Cc4cccc(/C=C/C(=O)O)c4)n3)c2)ccc2[nH]ccc12", "note": "[Example 15, (E)-3-(3-((3-(3-((4-(Methylcarbamoyl)-1H-indol-5-yl)oxy)phenyl)-1H-pyrazol-1-yl)methyl)phenyl)acrylic acid]", "DSLS NBD1/3D Human Stability delta-T (° C.) @ 100 (μM)": "B (B: 5-10° C.)"}, {"smiles": "CNC(=O)c1c(Oc2cccc(-c3ccn(Cc4cccc(CCC(=O)O)c4)n3)c2)ccc2[nH]ccc12", "note": "[Example 16, 3-(3-((3-(3-((4-(Methylcarbamoyl)-1H-indol-5-yl)oxy)phenyl)-1H-pyrazol-1-yl)methyl)phenyl)propanoic acid]", "DSLS NBD1/3D Human Stability delta-T (° C.) @ 100 (μM)": "B (B: 5-10° C.)"}, {"smiles": "Cc1c(Oc2ccc(F)c(-c3ccn(Cc4cccc(CCC(N)=O)c4)n3)c2)c(F)cc2[nH]ccc12", "note": "[Example 17, 3-(3-((3-(2-Fluoro-5-((6-fluoro-4-methyl-1H-indol-5-yl)oxy)phenyl)-1H-pyrazol-1-yl)methyl)phenyl)propanamide]", "DSLS NBD1/3D Human Stability delta-T (° C.) @ 100 (μM)": "C (C: ≤5° C.)"}, {"smiles": "Cc1c(Oc2ccc(F)c(-c3ccn(Cc4cnc(CCC(=O)O)s4)n3)c2)c(F)cc2[nH]ccc12", "note": "[Example 18, 3-(5-((3-(2-Fluoro-5-((6-fluoro-4-methyl-1H-indol-5-yl)oxy)phenyl)-1H-pyrazol-1-yl)methyl)thiazol-2-yl)propanoic acid]", "DSLS NBD1/3D Human Stability delta-T (° C.) @ 100 (μM)": "C (C: ≤5° C.)"}, {"smiles": "Cc1c(Oc2cccc(-c3nn(Cc4cccc(CCC(=O)O)c4)cc3F)c2)c(F)cc2[nH]ccc12", "note": "[Example 19, 3-(3-((4-Fluoro-3-(3-((6-fluoro-4-methyl-1H-indol-5-yl)oxy)phenyl)-1H-pyrazol-1-yl)methyl)phenyl)propanoic acid]", "DSLS NBD1/3D Human Stability delta-T (° C.) @ 100 (μM)": "C (C: ≤5° C.)"}, {"smiles": "Cc1c(Oc2cccc(-c3c(F)cnn3Cc3cccc(CCC(=O)O)c3)c2)c(F)cc2[nH]ccc12", "note": "[Example 20, 3-(3-((4-Fluoro-5-(3-((6-fluoro-4-methyl-1H-indol-5-yl)oxy)phenyl)-1H-pyrazol-1-yl)methyl)phenyl)propanoic acid]", "DSLS NBD1/3D Human Stability delta-T (° C.) @ 100 (μM)": "C (C: ≤5° C.)"}, {"smiles": "Cc1c(Oc2cccc(-c3ccc(Cc4cccc(CCC(=O)O)c4)[nH]3)c2)c(F)cc2[nH]ccc12", "note": "[Example 21, 3-(3-((5-(3-((6-Fluoro-4-methyl-1H-indol-5-yl)oxy)phenyl)-1H-pyrrol-2-yl)methyl)phenyl)propanoic acid]", "DSLS NBD1/3D Human Stability delta-T (° C.) @ 100 (μM)": "C (C: ≤5° C.)"}, {"smiles": "CS(=O)(=O)c1c(Oc2ccc(F)c(-c3ncc(Cc4cccc(CCC(=O)O)c4)[nH]3)c2)c(F)cc2[nH]ccc12", "note": "[Example 22, 3-(3-((2-(2-Fluoro-5-((6-fluoro-4-(methylsulfonyl)-1H-indol-5-yl)oxy)phenyl)-1H-imidazol-5-yl)methyl)phenyl)propanoic acid]", "DSLS NBD1/3D Human Stability delta-T (° C.) @ 100 (μM)": "A (A: T ≥ 10° C.)"}, {"smiles": "CS(=O)(=O)c1c(Oc2ccc(F)c(-c3ncc(Cc4cccc(CCC(N)=O)c4)[nH]3)c2)c(F)cc2[nH]ccc12", "note": "[Example 24, 3-(3-((2-(2-Fluoro-5-((6-fluoro-4-(methylsulfonyl)-1H-indol-5-yl)oxy)phenyl)-1H-imidazol-5-yl)methyl)phenyl)propanamide]", "DSLS NBD1/3D Human Stability delta-T (° C.) @ 100 (μM)": "B (B: 5-10° C.)"}, {"smiles": "O=C(O)CCc1cccc(Cc2nnc(-c3cccc(Oc4c(F)cc5[nH]ccc5c4[S+]([O-])C(F)F)c3)[nH]2)c1", "note": "(stereo not shown) [Example 25, 3-(3-((5-(3-((4-((Difluoromethyl)sulfinyl)-6-fluoro-1H-indol-5-yl)oxy)phenyl)-4H-1,2,4-triazol-3-yl)methyl)phenyl)propanoic acid]", "DSLS NBD1/3D Human Stability delta-T (° C.) @ 100 (μM)": "C (C: ≤5° C.)"}, {"smiles": "CC(O)(c1cccc(CCC(=O)O)c1)c1cnc(-c2cc(Oc3c(F)cc4[nH]ccc4c3S(C)(=O)=O)ccc2F)[nH]1", "note": "(stereo not shown) [Example 26, 3-(3-(1-(2-(2-Fluoro-5-((6-fluoro-4-(methylsulfonyl)-1H-indol-5-yl)oxy)phenyl)-1H-imidazol-5-yl)-1-hydroxyethyl)phenyl)propanoic acid]", "DSLS NBD1/3D Human Stability delta-T (° C.) @ 100 (μM)": "A (A: T ≥ 10° C.)"}, {"smiles": "CCS(=O)(=O)c1c(Oc2ccc(F)c(-c3ncc(C(C)(O)c4cccc(CCC(=O)O)c4)[nH]3)c2)c(F)cc2[nH]ccc12", "note": "(stereo not shown) [Example 27, 3-(3-(1-(2-(5-((4-(ethylsulfonyl)-6-fluoro-1H-indol-5-yl)oxy)-2-fluorophenyl)-1H-imidazol-5-yl)-1-hydroxyethyl)phenyl)propanoic acid]", "DSLS NBD1/3D Human Stability delta-T (° C.) @ 100 (μM)": "B (B: 5-10° C.)"}, {"smiles": "CC(O)(c1cccc(CCC(=O)O)c1)c1cnc(-c2cccc(Oc3c(F)cc4[nH]ccc4c3S(=O)(=O)CC(F)F)c2)[nH]1", "note": "(stereo not shown) [Example 28, 3-(3-(1-(2-(3-((4-((2,2-difluoroethyl)sulfonyl)-6-fluoro-1H-indol-5-yl)oxy)phenyl)-1H-imidazol-5-yl)-1-hydroxyethyl)phenyl)propanoic acid]", "DSLS NBD1/3D Human Stability delta-T (° C.) @ 100 (μM)": "A (A: T ≥ 10° C.)"}, {"smiles": "CC(C)S(=O)(=O)c1c(Oc2ccc(F)c(-c3nc(C(C)(O)c4cccc(CCC(=O)O)c4)c[nH]3)c2)c(F)cc2[nH]ccc12", "note": "(stereo not shown) [Example 29, 3-(3-(1-(2-(2-fluoro-5-((6-fluoro-4-(isopropylsulfonyl)-1H-indol-5-yl)oxy)phenyl)-1H-imidazol-4-yl)-1-hydroxyethyl)phenyl)propanoic acid]", "DSLS NBD1/3D Human Stability delta-T (° C.) @ 100 (μM)": "B (B: 5-10° C.)"}, {"smiles": "CC(O)(c1cccc(CCC(N)=O)c1)c1cnc(-c2cc(Oc3c(F)cc4[nH]ccc4c3S(C)(=O)=O)ccc2F)[nH]1", "note": "(stereo not shown) [Example 30, 3-(3-(1-(2-(2-Fluoro-5-((6-fluoro-4-(methylsulfonyl)-1H-indol-5-yl)oxy)phenyl)-1H-imidazol-5-yl)-1-hydroxyethyl)phenyl)propanamide]", "DSLS NBD1/3D Human Stability delta-T (° C.) @ 100 (μM)": "B (B: 5-10° C.)"}, {"smiles": "Cn1nc(-c2cccc(Oc3c(F)cc4[nH]ccc4c3S(C)(=O)=O)c2)nc1Cc1cccc(CCC(=O)O)c1", "note": "[Example 31, 3-(3-((3-(3-((6-Fluoro-4-(methylsulfonyl)-1H-indol-5-yl)oxy)phenyl)-1-methyl-1H-1,2,4-triazol-5-yl)methyl)phenyl)propanoic acid]", "DSLS NBD1/3D Human Stability delta-T (° C.) @ 100 (μM)": "B (B: 5-10° C.)"}, {"smiles": "CS(=O)(=O)c1c(Oc2cccc(-c3ncn(Cc4cccc(CCC(=O)O)c4)n3)c2)c(F)cc2[nH]ccc12", "note": "[Example 32, 3-(3-((3-(3-((6-Fluoro-4-(methylsulfonyl)-1H-indol-5-yl)oxy)phenyl)-1H-1,2,4-triazol-1-yl)methyl)phenyl)propanoic acid]", "DSLS NBD1/3D Human Stability delta-T (° C.) @ 100 (μM)": "B (B: 5-10° C.)"}, {"smiles": "C[S+]([O-])c1c(Oc2cccc(-c3ncn(Cc4cccc(CCC(=O)O)c4)n3)c2)c(F)cc2[nH]ccc12", "note": "(stereo not shown) [Example 33, 3-(3-((3-(3-((6-Fluoro-4-(methylsulfinyl)-1H-indol-5-yl)oxy)phenyl)-1H-1,2,4-triazol-1-yl)methyl)phenyl)propanoic acid]", "DSLS NBD1/3D Human Stability delta-T (° C.) @ 100 (μM)": "B (B: 5-10° C.)"}, {"smiles": "CS(=O)(=O)c1c(Oc2cccc(-c3ncn(Cc4cccc(CCC(N)=O)c4)n3)c2)c(F)cc2[nH]ccc12", "note": "[Example 34, 3-(3-((3-(3-((6-Fluoro-4-(methylsulfonyl)-1H-indol-5-yl)oxy)phenyl)-1H-1,2,4-triazol-1-yl)methyl)phenyl)propanamide]", "DSLS NBD1/3D Human Stability delta-T (° C.) @ 100 (μM)": "B (B: 5-10° C.)"}, {"smiles": "CS(=O)(=O)c1c(Oc2cccc(-c3nc(Cc4cccc(CCC(=O)O)c4)cs3)c2)c(F)cc2[nH]ccc12", "note": "[Example 35, 3-(3-((2-(3-((6-Fluoro-4-(methylsulfonyl)-1H-indol-5-yl)oxy)phenyl)thiazol-4-yl)methyl)phenyl)propanoic acid]", "DSLS NBD1/3D Human Stability delta-T (° C.) @ 100 (μM)": "B (B: 5-10° C.)"}]}]}
